The values below come from paper PMC10388327, “Dual Piperidine-Based Histamine H3 and Sigma-1 Receptor Ligands in the Treatment of Nociceptive and Neuropathic Pain” (Journal of Medicinal Chemistry, 2023).

SMILES strings stand for the structures. Structures can show the parent of a compound that is named as a salt. Where two headings read alike, the source gives them in different places.

Series [1] concerns mice. Description: spontaneous locomotor activity. It counts as in vivo. To be noted: 15 mg/kg i.p. The protocol:
The high sedative activity of analgesics is considered an undesirable property, which may lead to an incorrect or ambiguous interpretation of the in vivo results. Moreover, it may limit the potential clinical application of new drug candidates.
This test was carried out according to the procedure described elsewhere.[84] The animals were injected (i.p.) with 12 at doses of 5, 15, and 30 mg/kg and placed in the activity cages individually (30 min before the experiment). The number of light-beam crossings was counted in each group during the next 30 min in 10 min intervals.

Series [2] has as its target T1, human histamine H2 receptor (hH2R) (Homo sapiens, UniProt P25021).
T1 construct: SP (signal peptide) (N); FLAG (N); expressed in transfected cells
Description: hH2R radioligand binding ([3H]UR-DE257). To be noted: HEK293T cells, n = 3, triplicate. The protocol:
(§1) To check the selectivity profile of our lead structures, radioligand binding studies at other histamine receptor subtypes were carried out. […] Obtained results clearly indicate the high selectivity of the tested derivatives toward human H3R (Table 3).
(§2) Compounds (as oxalate salts) were tested in H3R in vitro binding studies using the methods described previously.[21]−[23] […] Radioligand binding experiments at the H1R, H2R, and H4R were performed as previously described in Rosier et al.[65] and Bartole et al.[66] […] Data represent mean values ± CI from three independent experiments, each performed in triplicate. The normalized competition binding curves were then fitted with a four-parameter logistic fit yielding IC50 values using the Prism 8.4.3 software (GraphPad, San Diego, CA). The Ki values were estimated from the Cheng–Prusoff equation.[69]

Series [3] has as its target T2, human histamine H4 receptor (hH4R) (Homo sapiens, UniProt Q9H3N8).
T2 construct: SP (signal peptide) (N); FLAG (N); expressed in transfected cells
Description: hH4R radioligand binding ([3H]UR-PI294). To be noted: read-out: hH4R (Ki [nM] x̅ [CI 95%]); HEK293T cells; n = 3, triplicate. How it is done:
as §1, §2

Series [4] relates to mice. Description: motor coordination in the rotarod test. It counts as in vivo. To be noted: 15 mg/kg i.p.; 6, 18 and 24 rpm. The text has this:
The neurotoxicity of the new compounds can result in impaired motor functions of the experimental animals, which may subsequently cause false interpretation of the results of in vivo tests. Understandably, neurotoxicity is also the frequent reason for eliminating the tested compound from further studies. To minimize that risk, we investigated the influence of our lead structures on motor coordination in the rotarod test, which is the classical test used for assessing motor coordination and balance in rodents. It provides a quick and simple estimation of neuromuscular coordination. […] The time spent on the rotarod apparatus was 60 s for each control mouse.
The test was carried out on the semiautomatic rotarod apparatus (Rotarod apparatus Panlab/Harvard Apparatus, LE 8200, Spain) according to the method previously described in the literature.[85] The mice were trained for 3 days on the rod rotating at a constant speed of 18 rotations per minute (rpm). During each training session, the animals were placed on the rod for 3 min with an unlimited number of trials. On the test day (24 h after the final training trial), 30 min before the rotarod test, the mice were pretreated (i.p.) with the test compound (15 mg/kg). Then, the animals were tested on the rotarod revolving at 6, 18, and then 24 rpm. Motor impairments, defined as the inability to remain on the rotating rod for 1 min, were measured at each speed.

Series [5] deals with sigma-1 receptor (σ1R). Description: σ1R radioligand binding ([3H](+)-pentazocine). To be noted: ratio of σ2R Ki to σ1R Ki. Also on record: species or system guinea pig.
The target of series [6] is T3, sigma-1 receptor (σ1R) (Cavia porcellus, UniProt Q60492).
T3 construct: The thawed membrane preparation of the guinea pig brain cortex was incubated; from tissue; host or cells: male Dunkin-Hartley guinea pig brain cortex membranes
Description: σ1R radioligand binding ([3H](+)-pentazocine). To be noted: read-out: σ1R Ki [nM] x̄ [CI 95%]; mean [CI 95%]. Also on record: species or system guinea pig.

In series [7] the target is T4, human histamine H1 receptor (hH1R) (Homo sapiens, UniProt P35367).
T4 construct: SP (signal peptide) (N); FLAG (N); expressed in transfected cells
Description: hH1R radioligand binding ([3H]mepyramine). To be noted: read-out: hH1R (Ki [nM] x̅ [CI 95%]); HEK293T cells; n = 3, triplicate. How it is done: as §1, §2

The target of series [8] is T5, human recombinant histamine H3R (Homo sapiens, UniProt Q9Y5N1).
T5 construct: expressed in transfected cells
Description: hH3R radioligand binding ([3H]Nα-methylhistamine depletion assay). To be noted: read-out: hH3R Ki [nM] x̄ [CI 95%]; mean [CI 95%]; HEK-293 cells.

Another series addresses T6, sigma-2 receptor (σ2R) (Rattus norvegicus, UniProt Q5U3Y7).
T6 construct: The thawed membrane preparation of rat liver was incubated; from tissue; host or cells: Sprague-Dawley rat liver membranes
T6 sequence (Q5U3Y7 1-176): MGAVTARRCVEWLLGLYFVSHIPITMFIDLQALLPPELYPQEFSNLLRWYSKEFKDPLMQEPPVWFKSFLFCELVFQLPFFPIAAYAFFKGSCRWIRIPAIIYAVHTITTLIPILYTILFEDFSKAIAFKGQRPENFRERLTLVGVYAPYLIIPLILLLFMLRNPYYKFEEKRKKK
Description: σ2R radioligand binding ([3H]DTG). To be noted: read-out: σ2R Ki [nM] x̄ [CI 95%]; mean [CI 95%].

In series [9] the test system is mice. Description: formalin test. It counts as in vivo. As to conditions: for ED50: Mus musculus, ip. The text has this: The formalin test is one of the most useful screening models for testing potentially clinically relevant antinociceptive molecules because of its ease of administration, standardization, and validation with reference drugs.[50] The subcutaneous injection of formalin results in a focal injury that stimulates and then damages sensory endings. Two distinct phases of nociceptive response are associated with the immediate activation of nociceptors and sensitization of spinal reflex circuits during phase I and II responses, respectively.[51]
The procedure used was essentially the same as that described previously.[86],[87] Briefly, 20 μL of 1.5% formalin solution was injected intraplantarly (i.pl.) into the mice right hind paw using a 26-gauge needle. […] The total time (in seconds) spent on licking the injected paw during periods of 0–5 min (early phase, neurogenic) and 15–30 min (late phase, inflammatory) was measured and was considered as an indicator of nociceptive behavior. Before formalin injection, different groups of mice were treated i.p. with the vehicle (10 mL/kg, negative control) and the varying doses of 12 (5, 10, 15, and 30 mg/kg).

A short description of series [10]: parallel artificial membrane permeability assay (PAMPA). To be noted: 100 μM in PBS pH 7.4, RT, read-out: Pe (permeability coefficient). It counts as in vitro ADME.
The target in another series is H3R. More on the design: method as in PMID 30359639. To be noted: Figure 1, compounds evaluated in clinical trials; cited from earlier work.
Series [11] addresses T5, human recombinant histamine H3R. As to conditions: read-out: hH3R Ki [nM] x̄ [CI 95%]; mean [CI 95%]; recalculated from published data; cited from earlier work.
Series [12] in a line: pKa determination by potentiometric titration. It counts as physicochemical. To be noted: for pKa: aqueous solution. How it is done:
In addition, we tested the amino alcohol fragments of these compounds to carefully monitor the influence of individual protonated nitrogen atoms on the obtained pKa values (Figure 4). […] Based on a previously modified potentiometric procedure,[27],[28] a series of titrations were performed, and the pKa values were determined using the Kostrowicki and Liwo algorithm.[29],[30] […] That explains the surprising result of free base crystallization attempts where iodide salt was obtained instead of the neutral form. On the other hand, in the same environment, KSK94 exists in two forms: the monoprotonated form [HL^+] (20.56%) and the free ligand [L] (77.72%, Figure 5). […] KSK68 can be characterized as a basic ligand with pKa1 = 4.9 (pyridine N) and pKa2 = 8.4 (piperidine N). The pKa values are consistent with those determined by the same procedure for the corresponding amino alcohol 3-(4-(pyridin-4-yl)piperidin-1-yl)propan-1-ol (Figure 4). […] A similarly low pKa2 value for the N7 piperazine nitrogen atom was also determined for the corresponding amino alcohol 3-(4-(pyridin-4-yl)piperazin-1-yl)propan-1-ol (Figure 4), which is in agreement with the value obtained for 1-phenyl-4-methyl piperazine reported in the literature.[31] […] The lowest value was determined for 4-nitrophenyl, and the highest was for 2-methylphenyl derivatives.[32]
The potentiometric microtitration was performed in a thermostated 20 mL cell using a CerkoLab microtitration unit fitted with a pH electrode (Hydromet ERH-13-6). The electrode was calibrated with the use of buffer solutions: pH = 4.00, 7.00, and 10.00. Titrant T (0.1 M KOH) was standardized according to the general analytical procedure and protected from carbon dioxide. Double distilled water with a conductivity of about 0.18 mS/cm was used to prepare all aqueous solutions. DMSO (HPLC grade, 99.5%) was supplied by Sigma Aldrich. The concentration of the titrant solution (D) was 0.0025–0.005 M. The solubilization procedure was follows: The appropriate amount of KSK compound was dissolved in 1 mL 0.1 M HCl and 1 mL DMSO to prepare a 25 mL stock solution. The developed solubilization system can be recommended for poorly soluble derivatives. The analytical procedure was a follows: volume V0 = 4.5 mL of titrant D was titrated with 0.1 M titrant T using the CerkoLab System equipped with a 5 mL syringe pump.

The conditions of series [13]: observation during crystallization.
For series [14], the system named is mice. Description: loperamide-induced antinociception (paw pressure, struggle response latency). It counts as in vivo, Female CD1 mice.
[15] abbreviates: 0–5 min after formalin, read-out: ED50, formalin test phase I (acute phase).
[16] abbreviates: 15–30 min after formalin, read-out: ED50, formalin test phase II (late phase).
Setting [17] is: Figure 5, species distribution from titration curves.
Setting [18] is: experimental, potentiometric titration.

T3 sequence (Q60492 whole entry): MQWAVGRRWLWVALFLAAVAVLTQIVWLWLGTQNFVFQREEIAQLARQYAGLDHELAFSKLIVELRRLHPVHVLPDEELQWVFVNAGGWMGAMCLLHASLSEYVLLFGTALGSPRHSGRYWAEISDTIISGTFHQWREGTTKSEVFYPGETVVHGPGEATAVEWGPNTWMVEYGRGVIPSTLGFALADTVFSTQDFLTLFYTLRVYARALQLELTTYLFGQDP
T5 sequence (Q9Y5N1 whole entry): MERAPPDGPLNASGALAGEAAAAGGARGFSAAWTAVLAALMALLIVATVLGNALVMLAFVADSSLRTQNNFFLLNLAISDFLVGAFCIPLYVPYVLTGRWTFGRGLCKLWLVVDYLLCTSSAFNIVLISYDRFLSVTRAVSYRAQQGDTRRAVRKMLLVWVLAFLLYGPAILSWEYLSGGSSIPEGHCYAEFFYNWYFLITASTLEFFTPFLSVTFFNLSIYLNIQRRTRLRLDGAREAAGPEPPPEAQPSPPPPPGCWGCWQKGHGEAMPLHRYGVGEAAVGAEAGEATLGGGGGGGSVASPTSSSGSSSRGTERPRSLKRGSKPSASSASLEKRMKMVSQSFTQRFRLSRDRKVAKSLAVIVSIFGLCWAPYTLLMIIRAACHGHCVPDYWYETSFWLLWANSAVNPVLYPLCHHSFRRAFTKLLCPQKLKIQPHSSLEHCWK
T4 sequence (P35367 whole entry): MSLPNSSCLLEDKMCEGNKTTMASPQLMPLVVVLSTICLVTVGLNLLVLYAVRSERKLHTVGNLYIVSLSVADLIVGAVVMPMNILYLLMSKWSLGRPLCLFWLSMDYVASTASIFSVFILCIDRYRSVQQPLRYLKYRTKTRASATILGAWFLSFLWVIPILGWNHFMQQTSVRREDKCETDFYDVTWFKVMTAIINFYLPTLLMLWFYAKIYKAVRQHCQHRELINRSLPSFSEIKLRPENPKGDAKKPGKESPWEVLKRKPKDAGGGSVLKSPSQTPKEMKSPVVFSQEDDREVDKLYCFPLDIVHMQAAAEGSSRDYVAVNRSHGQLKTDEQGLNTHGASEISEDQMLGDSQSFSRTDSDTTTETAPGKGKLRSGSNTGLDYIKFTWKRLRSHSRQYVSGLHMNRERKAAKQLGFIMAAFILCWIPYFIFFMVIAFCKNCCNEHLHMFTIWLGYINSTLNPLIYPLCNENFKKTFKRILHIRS
T2 sequence (Q9H3N8 whole entry): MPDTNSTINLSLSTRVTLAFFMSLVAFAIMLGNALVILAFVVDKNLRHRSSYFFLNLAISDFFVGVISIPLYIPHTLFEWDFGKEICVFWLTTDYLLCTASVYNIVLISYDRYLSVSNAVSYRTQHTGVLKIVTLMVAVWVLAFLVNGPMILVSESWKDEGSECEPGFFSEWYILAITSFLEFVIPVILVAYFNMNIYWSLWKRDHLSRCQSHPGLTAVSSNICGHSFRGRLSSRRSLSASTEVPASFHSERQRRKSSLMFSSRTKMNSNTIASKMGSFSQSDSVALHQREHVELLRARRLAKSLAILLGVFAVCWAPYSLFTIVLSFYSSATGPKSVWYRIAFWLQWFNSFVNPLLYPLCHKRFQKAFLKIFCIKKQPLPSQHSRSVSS
T1 sequence (P25021 whole entry): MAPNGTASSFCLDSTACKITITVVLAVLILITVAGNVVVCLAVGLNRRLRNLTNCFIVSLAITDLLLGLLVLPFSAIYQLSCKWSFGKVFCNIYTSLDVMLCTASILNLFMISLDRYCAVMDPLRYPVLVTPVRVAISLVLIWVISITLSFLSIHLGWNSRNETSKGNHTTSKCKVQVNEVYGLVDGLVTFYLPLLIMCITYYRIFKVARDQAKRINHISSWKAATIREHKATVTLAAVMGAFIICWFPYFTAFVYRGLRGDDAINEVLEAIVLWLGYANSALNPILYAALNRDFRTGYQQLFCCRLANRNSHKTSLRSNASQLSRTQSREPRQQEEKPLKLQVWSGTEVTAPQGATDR

Regarding `c1ccc(-c2ccc(OCCCN3CCCCCC3)cc2)cc1` [Compound 3, 1-(3-([1,1′-Biphenyl]-4-yloxy)propyl)azepane Oxalate], the “influence on spontaneous locomotor activity (sedative effect)” value with mice [1] is “high and significant sedative effects”. In addition, the Ki was greater than 10000 nM in series [2] (read-out: hH2R (Ki [nM] x̅ [CI 95%])); greater than 10000 nM in [3]; 1.9 nM at sigma-1 receptor (σ1R) [6]; 7620 nM in series [7]; 4.3 nM in series [8]; 25 nM on sigma-2 receptor (σ2R). In addition, the “influence on motor coordination, time on rotarod” value in the series with mice [4] is recorded as “significantly impaired the motor coordination of mice”. The σ2/σ1 ratio in the series on sigma-1 receptor (σ1R) [5] is given as 13.2. Besides, the 50% effective dose (ED50) in the series on mice [9] (setting [15]) is 14.2 mg/kg; in the series with mice [9] (setting [16]), 13.3 mg/kg. Further, the Papp at 5 h, 100 µM in series [10] is 6.57 ×10⁻⁶ cm/s.
As to `c1cc(OCCCN2CCCCC2)ccc1CN1CCCCC1` [JNJ-5207852], the Ki at H3R was 0.0003 µM.
Consider `c1ccc(-c2ccc(OCCCCCN3CCCCC3)cc2)cc1` [Compound 10, 1-(5-([1,1′-Biphenyl]-4-yloxy)pentyl)piperidine Oxalate], for which the values for the Ki (at sigma-1 receptor (σ1R) [6]; in series [11]; on sigma-2 receptor (σ2R)) were 140 nM, 21.7 nM and 19 nM, respectively.
Turning to `c1ccc(Nc2ccc(OCCCN3CCCCC3)cc2)cc1` [Compound 7, N-Phenyl-4-(3-(piperidin-1-yl)propoxy)aniline Oxalate], in the series on mice [1], the “influence on spontaneous locomotor activity (sedative effect)” value was “high and significant sedative effects”. Besides, the Ki is greater than 10000 nM in [2]; greater than 10000 nM in series [3]; 4.8 nM at sigma-1 receptor (σ1R) [6]; greater than 10000 nM in [7]; 5.2 nM in [8]; 116 nM on sigma-2 receptor (σ2R). Besides, the “influence on motor coordination, time on rotarod” value in the series with mice [4] was “significantly decreased the time spent on the rod at 18 and 24 rpm”. Also, the σ2/σ1 ratio in the series on sigma-1 receptor (σ1R) [5] worked out at 24.2. For the same compound, the ED50 with mice [9] (setting [15]) is 11.9 mg/kg; with mice [9] (setting [16]) it was 11.7 mg/kg. Further, in the series with mice [9] (i.p., 0–5 min after formalin), the “ED50, formalin test phase I (acute phase)” value worked out at 11.95 mg/kg. The “ED50, formalin test phase II (late phase)” value in the series with mice [9] (i.p., 15–30 min after formalin) was found to be 11.71 mg/kg. Further, the Papp at 5 h, 100 µM in [10] is 10.6 ×10⁻⁶ cm/s.
For the compound `c1ccc(-c2ccc(OCCCCCCN3CCCCC3)cc2)cc1` [Compound 11, 1-(6-([1,1′-Biphenyl]-4-yloxy)hexyl)piperidine Oxalate], the Ki at sigma-1 receptor (σ1R) [6] is 118 nM; in series [11] it was 88.9 nM; at sigma-2 receptor (σ2R) it was 46 nM.
As for `O=C(c1ccc(OCCCN2CCC(c3ccncc3)CC2)cc1)C1CC1` [KSK68], in [12] (setting [17]), the “pK of equilibrium H2L+2 = H+ + HL+” value was determined as 4.94 and the “pK of equilibrium HL+ = H+ + L0” value is recorded as 8.38. Besides, the “monoprotonated form [HL+]” value in series [12] (aqueous solution at physiological pH) is “approximately 90%”. Moreover, the pKa in series [12] (experimental, potentiometric titration, read-out: pKa1) was found to be 4.9. Moreover, the pKa in [12] (experimental, potentiometric titration, read-out: pKa2) came out at 8.4. In [12] (setting [18]), this compound gave a pKa1 of 4.94 and a pKa2 of 8.38. Besides, the solubility in water entry in [13] is “more soluble in H2O than KSK67”.
For the compound `Cc1cc(OCCN2CCOCC2)nn1-c1ccc2ccccc2c1` [Compound S1RA, 4-[2-[[5-methyl-1-(2-naphthalenyl)1H-pyraol-3-yl]oxy]ethyl]morpholine hydrochloride], the “in vivo σ1 receptor functional profile” value with mice [14] (concluded from PRE-084 reversal) is on record as “σ1 receptor antagonists”. In the series with mice [14] (i.pl. with loperamide 4 mg/kg s.c., injected paw), the “effect on loperamide-induced antinociception” value is “significantly and dose-dependently (50–100 μg) increased the antinociceptive effect induced by loperamide”. In the series with mice [14] (i.pl., S1RA 100 μg, 12 25 μg, 450 g pressure), the “effect alone on struggle response latency” value is reported as “did not change the response to the mechanical stimulus”. Moreover, the Ki at H3R was greater than 10 µM. The Papp at 5 h, 100 µM in series [10] was 5.26 ×10⁻⁶ cm/s.
